Consider three compounds from US6362237B1, “Compounds with progesterone-antagonistic and antiestrogenic action to be used together for female contraception” (Schering Aktiengesellschaft, priority 1994, dated 2002).

One assay relates to guinea pigs. Description: Inhibition of implantation in guinea pigs by estrogen antagonists. Format: in vivo, guinea pig.
For assay [1], the system named is normal guinea pigs with a normal cycle. Briefly: Test 3: receptivity inhibition in guinea pigs treated over 2 cycles, mating in the second cycle. Format: in vivo, guinea pig. Conditions: for effectiveness of the single dose given separately: 0.5 mg daily s.c.; for effectiveness of the single dose given separately / effect of lower doses by themselves: alone; for effect of lower doses by themselves: <1.0 mg daily s.c. The procedure:
The tests were carried out on normal guinea pigs with a normal cycle over a treatment period of 2 cycles. Mating took place in the second cycle.
Doses of Onapristone: 0.1, 0.25, 0.5, 1.0 and 3.0 mg daily s.c.

SMILES strings stand for the structures.

As for `C[C@]12CC[C@@H]3c4ccc(O)cc4C[C@@H](CCCCCCCCC[S+]([O-])CCCC(F)(F)C(F)(F)F)[C@H]3[C@@H]1CC[C@@H]2O` (stereo partly drawn) [ICI 182780, 7α-[9-[(4,4,5,5,5-pentafluorpentyl)sulfinyl]nonyl]estra-1,3,5(10)-trien-3,17β-diol], in the assay with guinea pigs, the “implantation in guinea pigs” value is listed as “inhibit implantation”.
`CN(C)c1ccc([C@H]2C[C@]3(C)[C@@H](CC[C@]3(O)CCCO)[C@@H]3CCC4=CC(=O)CCC4=C32)cc1` [onapristone, 11β-[4-(dimethylamino)phenyl]-17α-hydroxy-17β-(3-hydroxypropyl)-13α-estra-4,9-dien-3one]: in assay [1], the “effectiveness of the single dose given separately” value was “only marginally effective” and the “effect of lower doses by themselves” value is given as “no effect or a marginal effect”. The pregnancies after treatment entry in assay [1] (onapristone alone, high doses, daily s.c.) is recorded as “occasional pregnancies occurred”.
`CC/C(=C(\c1ccccc1)c1ccc(OCCN(C)C)cc1)c1ccccc1` [tamoxifen, (Z)-N,N-dimethyl-2-[4-(1,2-diphenyl-1-butenyl)phenoxy]ethanamine]: in assay [1], the “effectiveness of the single dose given separately” value was “only marginally effective” and the “effect of lower doses by themselves” value was “no effect or a marginal effect”. Besides, the normal pregnancies in assay [1] (tamoxifen alone, 10.0 mg daily s.c., 2 cycles) is listed as 30%. The inhibition of receptivity result in assay [1] (tamoxifen alone, dosage range 0.1-10.0 mg/animal daily s.c.) is on record as “no complete inhibition of receptivity could be achieved”. In addition, the “implantation in guinea pigs” value with guinea pigs is listed as “inhibit implantation”.
